The nature of data set [1]: Prodrug conversion in human plasma assessed as drug release measured after 24 hrs by HPLC analysis. The format is ADME, cell-free.
The nature of data set [2]: Prodrug conversion in human plasma assessed as formation of O-{2-(4-cyclopropylpiperazin-1-yl)acetyl}cannabidiol metabolite measured for 1 to 8 hrs by HPLC analysis. The format is ADME, cell-free. The settings on record: time 1-8 hrs.
Data set [3] can be described thus: Thermodynamic equilibrium solubility in water at 1 to 1200 ug incubated for 4 hrs by absorbance based assay. As to conditions: dose 1-1200 µg, read-out: Therm_solubility. The format is physicochemical.
Data set [4] in a line: Thermodynamic equilibrium solubility SIF at 1 to 1200 ug incubated for 4 hrs by absorbance based assay. As to conditions: dose 1-1200 µg, read-out: Therm_solubility. In kind it is physicochemical.
The nature of data set [5]: Thermodynamic equilibrium solubility SGF at 1 to 1200 ug incubated for 4 hrs by absorbance based assay. The format is physicochemical. As to conditions: dose 1-1200 µg, read-out: Therm_solubility.
Data set [6] can be described thus: Volume of distribution at steady state in fasted Wistar rat at 75 mg/kg, po measured for 24 hrs by LCMS/MS analysis. In kind it is ADME, organism-based. The settings on record: in vivo.
A short description of data set [7]: Oral bioavailability in Swiss mouse at 5 mg/kg measured for 24 hrs by LCMS/MS analysis. In kind it is ADME, organism-based. The settings on record: in vivo.
Data set [8] can be described thus: Cmax in fasted Swiss mouse at 75 mg/kg, po measured for 24 hrs by LCMS/MS analysis. The format is ADME, organism-based. The settings on record: in vivo. Further details: dose 75 mg/kg, time 24 hrs, route po.
The nature of data set [9]: AUC (0 to infinity) in fasted Wistar rat at 75 mg/kg, po measured for 24 hrs by LCMS/MS analysis. The format is ADME, organism-based. Further details: time 24 hrs, dose 75 mg/kg, route po. As to conditions: in vivo.
Data set [10] can be described thus: Clearance in fasted Wistar rat at 75 mg/kg, po measured for 24 hrs by LCMS/MS analysis. The settings on record: in vivo. In kind it is ADME, organism-based.
Data set [11] is described as follows: Clearance in fasted Swiss mouse at 75 mg/kg, po measured for 24 hrs by LCMS/MS analysis. As to conditions: in vivo. In kind it is ADME, organism-based.
Data set [12] is described as follows: Chemical stability in SIF at 2 mg/ml incubated for 2 hrs by HPLC analysis. In kind it is physicochemical. The settings on record: read-out: Stability.
Data set [13] is described as follows: AUC (0 to t) in fasted Swiss mouse at 75 mg/kg, po measured for 24 hrs by LCMS/MS analysis. Also noted: time 24 hrs, dose 75 mg/kg, route po. As to conditions: in vivo. In kind it is ADME, organism-based.
Data set [14] can be described thus: Chemical stability in water at 2 mg/ml incubated for 2 hrs by HPLC analysis. The format is physicochemical. The settings on record: read-out: Stability.
A short description of data set [15]: AUC (0 to t) in fasted Wistar rat at 75 mg/kg, po measured for 24 hrs by LCMS/MS analysis. In kind it is ADME, organism-based. Further details: dose 75 mg/kg, time 24 hrs, route po. As to conditions: in vivo.
Data set [16] in a line: Volume of distribution in fasted Swiss mouse at 75 mg/kg, po measured for 24 hrs by LCMS/MS analysis. The format is ADME, organism-based. As to conditions: in vivo.
Data set [17] in a line: Cmax in fasted Wistar rat at 75 mg/kg, po measured for 24 hrs by LCMS/MS analysis. Also noted: time 24 hrs, dose 75 mg/kg, route po. In kind it is ADME, organism-based. As to conditions: in vivo.
A short description of data set [18]: Chemical stability in SGF at 2 mg/ml incubated for 2 hrs by HPLC analysis. In kind it is physicochemical. The settings on record: read-out: Stability.
Data set [19] is described as follows: AUC (0 to infinity) in fasted Swiss mouse at 75 mg/kg, po measured for 24 hrs by LCMS/MS analysis. In kind it is ADME, organism-based. Also noted: dose 75 mg/kg, time 24 hrs, route po. As to conditions: in vivo.
Data set [20] in a line: in vivo. The settings on record: Swiss, mouse, po, 75 mg/kg.
Description: Tmax in fasted Swiss mouse at 75 mg/kg, po measured for 24 hrs by LCMS/MS analysis
Data set [21] in a line: in vivo. The settings on record: Wistar, rat, po, 75 mg/kg.
Description: Tmax in fasted Wistar rat at 75 mg/kg, po measured for 24 hrs by LCMS/MS analysis
A short description of data set [22]: Stability in Balb/C mouse plasma assessed as compound degradation at 10 uM incubated for 2 hrs by LC-MS/MS analysis. The settings on record: read-out: Drug degradation. The format is ADME, cell-free.
Data set [23] in a line: Volume of distribution at steady state in fasted Wistar rat at 75 mg/kg, po equivalent to Cannabidiol measured for 24 hrs by LCMS/MS analysis. As to conditions: in vivo. In kind it is ADME, organism-based.
Data set [24] in a line: Volume of distribution in fasted Swiss mouse at 75 mg/kg, po equivalent to Cannabidiol measured for 24 hrs by LCMS/MS analysis. In kind it is ADME, organism-based. The settings on record: in vivo.
Another data set has as its system Mus musculus. Put plainly: Antiepileptic activity in MES Swiss Albino mouse model assessed as decrease in convulsion duration at 75 mg/kg, po equivalent to Cannabidiol pretreated for 30 mins followed by induction of epileptic seizures measured for 1 to 8 hrs. In kind it is functional, organism-based. As to conditions: time 1.5-8.5 hrs.
A short description of data set [25]: Prodrug conversion in human plasma assessed as formation of O-(2-morpholinoacetyl)cannabidiol metabolite measured for 1 hr by HPLC analysis. In kind it is ADME, cell-free.

For orientation: bioavailability means the share of a dose that reaches the circulation, judged against a reference dose that is usually intravenous. Low readings indicate poor availability, high ones good availability. Broadly, the Cmax is the maximum level reached in the sampled fluid or tissue. As a reminder, the AUC(0-inf) is the area under the concentration-time curve extrapolated to infinity. One may read the CL/F as the apparent clearance, not corrected for the fraction that reaches the circulation. Usually AUC(0-t) stands for the area under the concentration-time curve up to a stated or last time point. High values mean more exposure, low ones less exposure. The Tmax is the time at which the peak concentration occurs.

≈ marks a conversion by molar mass, not a printed value. Calls of active or inactive are those of the source. The calls are words filed in the database; no cut-off is given here.

In the case of `C=C(C)[C@@H]1CCC(C)=C[C@H]1c1c(OC(=O)CN2CCN(C3CC3)CC2)cc(CCCCC)cc1OC(=O)CN1CCN(C2CC2)CC1`, the Drug metabolism in data set [1] is 27%; in data set [2], “Metabolite_Detected”.
Take `O=C(/C=C/C=C/c1ccc2c(c1)OCO2)N1CCCCC1` [PIPERINE]: the solubility thermodynamic at 4 h in [3] is 40 µg/mL (≈ 140 µM); in data set [4] it was 60 µg/mL (≈ 210 µM); in data set [5] it was 40 µg/mL (≈ 140 µM).
For `C=C(C)[C@@H]1CCC(C)=C[C@H]1c1c(O)cc(CCCCC)cc1OC(=O)CN1CCC(c2ccccc2)CC1`, the Drug metabolism in [1] was found to be 4.6%.
Compound `C=C(C)[C@@H]1CCC(C)=C[C@H]1c1c(O)cc(CCCCC)cc1O` [CANNABIDIOL] returned a Vdss in data set [6] of 77 L/kg. In [7], the bioavailability stood at 24%. Also, the figures for the Cmax in data set [8] and in data set [17] were 669 ng/mL and 728 ng/mL, respectively. In addition, the values for the AUC(0-inf) in data set [9] and in data set [19] were 10200 ng·h/mL and 4870 ng·h/mL, respectively. The figures for the CL/F in data set [10] and in data set [11] were 123 mL/min/kg and 250 mL/min/kg, respectively. Moreover, the remaining at 2 h, 2 mg/ml in data set [12], in data set [14] and in data set [18] was no less than 74% throughout. Besides, the solubility thermodynamic at 4 h in data set [3], in data set [4] and in [5] was less than 5 µg/mL in each case. The results for the AUC(0-t) at 24 h in data set [13] and in data set [15] were 4660 ng·h/mL and 9460 ng·h/mL, respectively. This compound also came in with a Vd in data set [16] of 137 L/kg. For the same compound, the Tmax at 24 h in the data set “in vivo [20]” was 2 h; in “in vivo [21]” it was 8 h.
Take `C=C(C)[C@@H]1CCC(C)=C[C@H]1c1c(O)cc(CCCCC)cc1OC(=O)CN1CCN(C)CC1`: the Drug metabolism in data set [1] was 59%.
For `C=C(C)[C@@H]1CCC(C)=C[C@H]1c1c(O)cc(CCCCC)cc1OC(=O)CN1CCN(c2ccccc2)CC1`, in data set [1], the Drug metabolism came out at 9.2%.
As to `C=C(C)[C@@H]1CCC(C)=C[C@H]1c1c(O)cc(CCCCC)cc1OC(=O)CN1CCCC1`, the Drug metabolism in data set [1] turned out to be 74%.
Same read-out and setting: to `C=C(C)[C@@H]1CCC(C)=C[C@H]1c1c(O)cc(CCCCC)cc1OC(=O)CN1CCN(C(C)C)CC1` belongs 78%.
As for `CCOC(=O)[C@H](CCc1ccccc1)N[C@@H](C)C(=O)N1CCC[C@H]1C(=O)O` [ENALAPRIL], in data set [22], the metabolised at 2 h, 10 µM was greater than 80%.
In the case of `C=C(C)[C@@H]1CCC(C)=C[C@H]1c1c(O)cc(CCCCC)cc1OC(=O)CN1CCOCC1`, in data set [23], the Vdss was found to be 32 L/kg. The Drug metabolism in [1] was 84%. Also, the Vd in data set [24] was 108 L/kg. For the same compound, the solubility thermodynamic at 4 h was 40 µg/mL (≈ 90.6 µM) in data set [3], 80 µg/mL (≈ 181 µM) in [4] and 400 µg/mL (≈ 906 µM) in data set [5].
In the case of `C=C(C)[C@@H]1CCC(C)=C[C@H]1c1c(O)cc(CCCCC)cc1OC(=O)CN1CCN(C2CC2)CC1`, the Drug metabolism in data set [1] was 56%.
With `C=C(C)[C@@H]1CCC(C)=C[C@H]1c1c(OC(=O)CN2CCOCC2)cc(CCCCC)cc1OC(=O)CN1CCOCC1`, the outcome in the data set with Mus musculus was Active. Besides, in data set [23], the Vdss is 93 L/kg. Moreover, the Drug metabolism is 52% in data set [1] and “Metabolite_Detected” in [25]. The Vd in data set [24] is 224 L/kg. In addition, the solubility thermodynamic at 4 h in [3] came out at 120 µg/mL (≈ 211 µM); in data set [4], 120 µg/mL (≈ 211 µM); in [5], 4000 µg/mL (≈ 7030 µM).
With `C=C(C)[C@@H]1CCC(C)=C[C@H]1c1c(O)cc(CCCCC)cc1OC(=O)CN1CCC(O)CC1`, in data set [1], the Drug metabolism was 73%.
On to `O=C(O)CN1CCOCC1`, for which the remaining at 2 h, 2 mg/ml in data set [12] and in [14] was no less than 74% throughout.

The values are drawn from ChEMBL document CHEMBL5357074, “Cannabidiol-Based Prodrugs: Synthesis and Bioevaluation” (ACS Med Chem Lett, 2024).
